# Patent US4900725A, “Steroids including a spiro ring in position 17, the process for their preparation and their use” (Roussel Uclaf, priority 1986, dated 1990)
# Columns and labels:
# [1] = target: T1, Glucocorticoid receptor of the rat thymus (Rattus norvegicus, UniProt P06536); assay: Glucocorticoid receptor of the rat thymus, relative bonding affinity (RBA); type: binding, rat (Sprague-Dawley); conditions: for Relative bonding affinity (RBA), Glucocorticoid, 4 H: incubation 4 H at 0° C.; for Relative bonding affinity (RBA), Glucocorticoid, 4 H / Relative bonding affinity (RBA), Glucocorticoid, 24 H: versus cold dexamethasone, tritiated dexamethasone; for Relative bonding affinity (RBA), Glucocorticoid, 24 H: incubation 24 H at 0° C.
# T1 construct: the thymus is removed and homogenized at 0° C. in a buffer; from tissue; host or cells: thymus of adrenalectomized male Sprague-Dawley rats, 105,000 g supernatant (cytosol)
# T1 sequence (P06536 1-795): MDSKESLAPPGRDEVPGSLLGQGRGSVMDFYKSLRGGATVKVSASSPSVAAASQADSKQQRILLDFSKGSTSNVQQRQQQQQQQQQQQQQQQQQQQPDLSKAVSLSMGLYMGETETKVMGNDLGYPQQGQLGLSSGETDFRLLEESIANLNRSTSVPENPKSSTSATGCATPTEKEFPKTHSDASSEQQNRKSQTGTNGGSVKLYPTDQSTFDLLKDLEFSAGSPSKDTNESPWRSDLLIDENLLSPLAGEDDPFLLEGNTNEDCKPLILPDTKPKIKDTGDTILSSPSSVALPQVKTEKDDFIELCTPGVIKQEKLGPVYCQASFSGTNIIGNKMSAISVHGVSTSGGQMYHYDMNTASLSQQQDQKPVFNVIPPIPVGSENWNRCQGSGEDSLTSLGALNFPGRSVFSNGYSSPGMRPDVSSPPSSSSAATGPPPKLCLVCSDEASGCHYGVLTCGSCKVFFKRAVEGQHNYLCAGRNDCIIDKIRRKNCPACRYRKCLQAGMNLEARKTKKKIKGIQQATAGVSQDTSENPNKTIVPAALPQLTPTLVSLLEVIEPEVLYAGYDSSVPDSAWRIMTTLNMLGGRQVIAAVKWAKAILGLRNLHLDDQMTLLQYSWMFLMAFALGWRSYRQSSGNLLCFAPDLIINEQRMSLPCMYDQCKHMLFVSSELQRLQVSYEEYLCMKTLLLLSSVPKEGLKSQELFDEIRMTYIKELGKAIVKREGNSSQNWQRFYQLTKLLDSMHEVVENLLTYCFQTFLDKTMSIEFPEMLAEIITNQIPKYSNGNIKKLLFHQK
# Experimental: Glucocorticoid receptor of the rat thymus
# Male Sprague-Dawley EOPS rats, weighing 160 to 200 g are suprerenalectomized. 4 to 8 days after this ablation, the animals are killed, and the thymus is removed and homogenized at 0° C. in a buffer, Tris 10 mM, saccharose 0.25M, dithiothreitol 2 mM, HCl pH 7.4, using a Potter polytetrafluoroethylene-glass (1 g of tissue for 10 ml of TS). The homogenate is then ultra-centrifuged (105,000 g×90 min.) at 0° C. Aliquots of the supernatant so obtained are incubated at 0° C. for a time (t) with a constant concentration (T) of tritiated dexamethasone in the presence of increasing concentrations (0-2,500.10^-9 M) either of cold dexamethasone, or of the cold product under test. The concentration of bonded tritiated dexamethasone (B) is then measured in each incubate by the technique of adsorption on carbon dextran.
# (§1) Calculation of the relative bonding affinity
# (§2) The calculation of the relative bonding affinity (RBA) is the same for all the receptors.
# (§3) The two following curves are drawn: the percentage of bonded tritiated hormone B/T as a function of the concentration of the cold reference hormone, and B/T as a function of the logarithm of the concentration of the cold product under test. The straight line of the equation [formula] is determined. B/T max=percentage of tritiated hormone bonded for an incubation of this tritiated hormone at the concentration (T). B/T min=percentage of tritiated hormone bonded for an incubation of this tritiated hormone at the concentration (T) in the presence of a great excess of cold hormone (2,500.10^-9 M).
# (§4) The intersections of the straight line I50 with the curves enables the concentrations of the cold reference hormone (CH) and of the cold product under test (CX) to be evaluated which inhibit by 50% the bonding of the tritiated hormone on the receptor.
# (§5) The relative bonding affinity (RBA) of the product under test is determined by the equation: [formula]
# [2] = system: thymocytes of suprarenalectomized rats; assay: Antiglucocorticoid activity: inhibition of the effect of dexamethasone on tritiated uridine incorporation in thymocytes; type: cell-based; conditions: Rattus norvegicus, Thymocyte, 5.10^-8 M dexamethasone, 37° C., 30 hours; for inhibition at 1 µM: product at 10^-6 M; for inhibition at 0.1 µM: product at 10^-7 M; for inhibition at 0.01 µM: product at 10^-8 M
# Experimental: II. Antiglucocorticoid activity
# The technique used derives from the method described by Dausse et Col. in "Molecular Pharmacology", 13, 948-953, (1977) ("the relationship between glucocorticoid structure and effects upon Thymocytes") for the thymocytes of mice.
# The thymocytes of suprarenalectomized rats are incubated at 37° C. for 30 hours in a nutritive medium containing 5.10^-8 M of dexamethasone in the presence or not of a product being studied, at different concentrations. Tritiated uridine is added, and the incubation is continued for one hour. The incubates are cooled, and treated with a 5% solution of trichloroacetic acid, then filtered on Whatman GF/A paper, and washed three times with a 5% trichloroacetic acid solution. The radio-activity retained by the filter is determined.
# The products of examples 1 to 4 oppose this effect.
# [3] = target: T2, Progestogene receptor of rabbit uterus (Oryctolagus cuniculus, UniProt P06186); assay: Progestogene receptor of rabbit uterus, relative bonding affinity (RBA); type: binding; conditions: for Relative bonding affinity (RBA), Progestogen, 2 H: incubation 2 H at 0° C.; for Relative bonding affinity (RBA), Progestogen, 2 H / Relative bonding affinity (RBA), Progestogen, 24 H: versus cold reference hormone, tritiated R; for Relative bonding affinity (RBA), Progestogen, 24 H: incubation 24 H at 0° C.
# T2 construct: the uterus is removed, weighed and homogenized at 0° C; from tissue; host or cells: uterus of estradiol-treated impuberal rabbits, 105,000 g supernatant (cytosol)
# T2 sequence (P06186 1-930): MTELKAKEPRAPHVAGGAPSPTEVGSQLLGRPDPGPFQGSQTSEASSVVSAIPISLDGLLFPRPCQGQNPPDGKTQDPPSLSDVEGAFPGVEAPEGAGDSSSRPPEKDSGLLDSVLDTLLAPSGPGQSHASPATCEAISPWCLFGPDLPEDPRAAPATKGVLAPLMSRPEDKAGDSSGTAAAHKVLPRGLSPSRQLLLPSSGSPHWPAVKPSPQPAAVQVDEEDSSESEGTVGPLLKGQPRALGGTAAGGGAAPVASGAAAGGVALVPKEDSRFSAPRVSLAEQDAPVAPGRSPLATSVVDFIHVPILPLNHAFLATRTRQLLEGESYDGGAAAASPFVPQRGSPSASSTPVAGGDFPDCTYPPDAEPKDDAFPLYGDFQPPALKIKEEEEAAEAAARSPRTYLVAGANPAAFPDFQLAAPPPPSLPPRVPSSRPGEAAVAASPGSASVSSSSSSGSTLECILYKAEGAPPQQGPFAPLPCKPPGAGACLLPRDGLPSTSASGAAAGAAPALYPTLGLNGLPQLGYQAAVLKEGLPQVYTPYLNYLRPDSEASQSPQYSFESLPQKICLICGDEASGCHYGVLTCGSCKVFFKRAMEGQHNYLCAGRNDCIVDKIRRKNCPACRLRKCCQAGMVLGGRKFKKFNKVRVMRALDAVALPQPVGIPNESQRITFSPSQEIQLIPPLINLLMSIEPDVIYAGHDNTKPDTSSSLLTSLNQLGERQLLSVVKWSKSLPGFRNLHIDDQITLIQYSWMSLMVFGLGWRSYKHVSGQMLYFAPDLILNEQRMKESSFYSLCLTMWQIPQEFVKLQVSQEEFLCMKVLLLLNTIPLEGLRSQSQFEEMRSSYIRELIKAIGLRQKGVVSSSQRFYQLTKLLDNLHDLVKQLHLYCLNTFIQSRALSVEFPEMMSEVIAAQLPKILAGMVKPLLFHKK
# Experimental: Progestogene receptor of rabbit uterus
# Impuberal rabbits weighing about 1 kg receive a cutaneous application of […] of estradiol. 5 days after this treatment, the animals are killed, the uterus is removed, weighed and homogenized at 0° C., using a Potter teflon-glass, in a buffered solution TS (tirs 10 mM, saccharose 0.25 M, HCl pH 7.4) (1 g of tissue for 50 ml of TS). The homogenate is then ultra-centrifuged (105,000 g×90 min.) at 0° C.
# Aliquots of the supernatant so obtained are incubated at 0° C. for a time t, with a constant concentration (T) of tritiated product R (17,21-dimethyl-19-nor-4,9-pregnadiene-3,20-dione) in the presence of increasing concentrations (0-2500.10^-9 M either of R cold, or of cold progesterone, or of the cold product under test. The concentration (B) of bonded triated (R) is then measured in each incubate by the technique of adsorption on carbon dextran.
# as §1, §2, §3, §4, §5
# [4] = system: thymocytes of suprarenalectomized rats; conditions: general statement on glucocorticoids, in particular dexamethasone; cited from earlier work
SMILES,"Relative bonding affinity (RBA), Glucocorticoid, 4 H [1]","Relative bonding affinity (RBA), Glucocorticoid, 24 H [1]",inhibition at 1 µM [2] [%],inhibition at 0.1 µM [2] [%],inhibition at 0.01 µM [2] [%],"Relative bonding affinity (RBA), Progestogen, 2 H [3]","Relative bonding affinity (RBA), Progestogen, 24 H [3]",incorporation of tritiated uridine (in words) [4],affinity for the glucocorticoid receptor (in words) ([1]; conclusion from RBA),affinity for the progestogen receptor (in words) ([3]; conclusion from RBA)
CN(C)c1ccc(C2CC3(C)C(CCC34CCCO4)C3CCC4=CC(=O)CCC4=C23)cc1 (stereo not shown) [Example 1],118,48,125,51,11,62,307,–,–,–
"CN(C)c1ccc(C2CC3(C)C(CCC34C=CCO4)C3CCC4=CC(=O)CCC4=C23)cc1 (stereo not drawn) [Example 2, (17 R) 11-beta-[4-(dimethylamino)phenyl]-spiro (estra-4,9-dien-17,27-(5H)-furan)-3-one]",142,96,32,18,0,23,222,–,–,–
C[C@@H]1C[C@H]2[C@@H]3CCC4=CC(=O)C=C[C@]4(C)[C@@]3(F)[C@@H](O)C[C@]2(C)[C@@]1(O)C(=O)CO [dexamethasone],–,–,–,–,–,–,–,reduction in the incorporation of tritiated uridine,–,–
"CSc1ccc(C2CC3(C)C(CCC34C=CCO4)C3CCC4=CC(=O)CCC4=C23)cc1 [Example 3, (17R) 11-beta-[4-(methylthio)phenyl]-spiro(estra-4,9-dien-17,2'-(5H)-furan)-3-one]",56,41,84,12,0,35,242,–,–,–
"CSc1ccc(C2CC3(C)C(CCC34CCCO4)C3CCC4=CC(=O)CCC4=C23)cc1 [Example 4, (17R) 4',5'-dihydro-11-beta-[4-(methylthio)phenyl]-spiro(estra-4,9-dien-17,2'-(3H)-furan)-3-one]",69,39,80,21,0,78,388,–,very marked affinity,very marked affinity
